# Source: patent US4323567A, “Arylmalonamido-1-oxadethiacephalosporins” (priority 1976, dated 1982)
# Key:
# Assay in all cases: Minimal inhibitory concentration, nutrient agar plate
# E. coli JC-2 = type: cell-based; conditions: Escherichia coli, JC2; as sodium salt, inoculum size 10^8, pH 7.0; read-out: Minimal inhibitory concentration
# Ps. aeruginosa 25619 = type: cell-based, Pseudomonas aeruginosa; conditions: Pseudomonas aeruginosa, 25619; as sodium salt, inoculum size 10^8, pH 7.0; read-out: Minimal inhibitory concentration
# [1] = system: Pseudomonas aeruginosa Denken; type: cell-based; conditions: as sodium salt, inoculum size 10^8, pH 7.0, read-out: Minimal inhibitory concentration
# E. coli 377 = type: cell-based, Escherichia coli; conditions: Escherichia coli, 377; as sodium salt, inoculum size 10^8, pH 7.0; read-out: Minimal inhibitory concentration
# Escherichia coli H = type: cell-based; conditions: as sodium salt, inoculum size 10^8, pH 7.0, read-out: Minimal inhibitory concentration
# P. vulgaris No. 3 = type: cell-based; conditions: Proteus vulgaris, NO.3; as sodium salt, inoculum size 10^8, pH 7.0; read-out: Minimal inhibitory concentration
# Klebsiella sp. 363 = type: cell-based; conditions: SP.363, as sodium salt, inoculum size 10^8, pH 7.0, read-out: Minimal inhibitory concentration
# [2] = system: Serratia marsescens 13880; type: cell-based; conditions: Serratia, 13880; as sodium salt, inoculum size 10^8, pH 7.0; read-out: Minimal inhibitory concentration
# P. vulgaris CN-329 = type: cell-based; conditions: Proteus vulgaris, CN329; as sodium salt, inoculum size 10^8, pH 7.0; read-out: Minimal inhibitory concentration
# P. morganii No. 9 = type: cell-based, Proteus morganii; conditions: Morganella morganii, NO.9; as sodium salt, inoculum size 10^8, pH 7.0; read-out: Minimal inhibitory concentration
# Enterobacter cloacae 233 = type: cell-based; conditions: Enterobacter cloacae, 233; as sodium salt, inoculum size 10^8, pH 7.0; read-out: Minimal inhibitory concentration
# Ps. aeruginosa 24 = type: cell-based, Pseudomonas aeruginosa; conditions: Pseudomonas aeruginosa, 24; as sodium salt, inoculum size 10^8, pH 7.0; read-out: Minimal inhibitory concentration
# Klebsiella pneumoniae = type: cell-based; conditions: as sodium salt, inoculum size 10^8, pH 7.0, read-out: Minimal inhibitory concentration
# Proteus mirabilis PR-4 = type: cell-based; conditions: PR4, as sodium salt, inoculum size 10^8, pH 7.0, read-out: Minimal inhibitory concentration
# E. coli 73 = type: cell-based, Escherichia coli; conditions: Escherichia coli, 73; as sodium salt, inoculum size 10^8, pH 7.0; read-out: Minimal inhibitory concentration
structure (smiles),measurement,setting,value
"CC(=O)OCC1=C(C(=O)O)N2C(=O)[C@@H](NC(=O)Cc3cccs3)[C@H]2SC1 [Cefalotin, reference compound]",MIC,E. coli JC-2,12.5 µg/mL
same,MIC,Ps. aeruginosa 25619,> 100 µg/mL
same,MIC,[1],> 100 µg/mL
same,MIC,E. coli 377,> 100 µg/mL
same,MIC,Escherichia coli H,3.2 µg/mL
same,MIC,P. vulgaris No. 3,> 100 µg/mL
same,MIC,Klebsiella sp. 363,> 100 µg/mL
same,MIC,[2],> 100 µg/mL
same,MIC,P. vulgaris CN-329,> 100 µg/mL
same,MIC,P. morganii No. 9,> 100 µg/mL
same,MIC,Enterobacter cloacae 233,> 100 µg/mL
same,MIC,Ps. aeruginosa 24,> 100 µg/mL
same,MIC,Klebsiella pneumoniae,1.6 µg/mL
same,MIC,Proteus mirabilis PR-4,3.2 µg/mL
same,MIC,E. coli 73,> 100 µg/mL
"Cc1nnc(SCC2=C(C(=O)O)N3C(=O)[C@@H](NC(=O)Cn4cnnn4)[C@H]3SC2)s1 [Cefazolin, reference compound]",MIC,E. coli JC-2,3.2 µg/mL
same,MIC,Ps. aeruginosa 25619,> 100 µg/mL
same,MIC,[1],> 100 µg/mL
same,MIC,E. coli 377,100 µg/mL
same,MIC,Escherichia coli H,1.6 µg/mL
same,MIC,P. vulgaris No. 3,> 100 µg/mL
same,MIC,Klebsiella sp. 363,> 100 µg/mL
same,MIC,[2],> 100 µg/mL
same,MIC,P. vulgaris CN-329,> 100 µg/mL
same,MIC,P. morganii No. 9,> 100 µg/mL
same,MIC,Enterobacter cloacae 233,> 100 µg/mL
same,MIC,Ps. aeruginosa 24,> 100 µg/mL
same,MIC,Klebsiella pneumoniae,3.2 µg/mL
same,MIC,Proteus mirabilis PR-4,6.2 µg/mL
same,MIC,E. coli 73,> 100 µg/mL
"Cn1nnnc1SCC1=C(C(=O)O)N2C(=O)[C@@H](NC(=O)C(C(=O)O)c3ccc(O)cc3)[C@H]2OC1 (stereo partly drawn) [Example III-6, 7β-(α-p-hydroxyphenyl-α-carboxyacetamido)-3-(1-methyltetrazol-5-yl)thiomethyl-1-oxadethia-3-cephem-4-carboxylic acid]",MIC,E. coli JC-2,0.39 µg/mL
same,MIC,Ps. aeruginosa 25619,6.25 µg/mL
same,MIC,[1],> 100 µg/mL
same,MIC,E. coli 377,0.39 µg/mL
same,MIC,Escherichia coli H,0.2 µg/mL
same,MIC,P. vulgaris No. 3,> 100 µg/mL
same,MIC,Klebsiella sp. 363,> 100 µg/mL
same,MIC,[2],0.78 µg/mL
same,MIC,P. vulgaris CN-329,> 100 µg/mL
same,MIC,P. morganii No. 9,0.78 µg/mL
same,MIC,Enterobacter cloacae 233,0.78 µg/mL
same,MIC,Ps. aeruginosa 24,> 100 µg/mL
same,MIC,Klebsiella pneumoniae,0.78 µg/mL
same,MIC,Proteus mirabilis PR-4,0.78 µg/mL
same,MIC,E. coli 73,> 100 µg/mL
"CO[C@@]1(NC(=O)C(C(=O)O)c2ccc(OC(N)=O)cc2)C(=O)N2C(C(=O)O)=C(CSc3nnnn3C)CO[C@@H]21 (stereo partly drawn) [Example III-25, 7β-(α-p-carbamoyloxyphenyl-α-carboxyacetamido)-7α-methoxy-3-(1-methyltetrazol-5-yl)thiomethyl-1-oxadethia-3-cephem-4-carboxylic acid]",MIC,E. coli JC-2,0.39 µg/mL
same,MIC,Ps. aeruginosa 25619,25 µg/mL
same,MIC,[1],> 100 µg/mL
same,MIC,E. coli 377,0.78 µg/mL
same,MIC,Escherichia coli H,0.1 µg/mL
same,MIC,P. vulgaris No. 3,0.39 µg/mL
same,MIC,Klebsiella sp. 363,0.39 µg/mL
same,MIC,[2],1.56 µg/mL
same,MIC,P. vulgaris CN-329,0.2 µg/mL
same,MIC,P. morganii No. 9,0.2 µg/mL
same,MIC,Enterobacter cloacae 233,0.78 µg/mL
same,MIC,Ps. aeruginosa 24,100 µg/mL
same,MIC,Klebsiella pneumoniae,0.39 µg/mL
same,MIC,Proteus mirabilis PR-4,0.2 µg/mL
same,MIC,E. coli 73,1.56 µg/mL
"CO[C@@]1(NC(=O)C(C(=O)O)c2ccccc2)C(=O)N2C(C(=O)O)=C(CSc3nnnn3C)CO[C@@H]21 (stereo partly drawn) [III-13, 7β-(α-carboxy-α-phenylacetamido)-7α-methoxy-3-(1-methyltetrazol-5-yl)thiomethyl-1-oxadethia-3-cephem-4-carboxylic acid]",MIC,E. coli JC-2,0.01 µg/mL
same,MIC,Ps. aeruginosa 25619,12.5 µg/mL
same,MIC,[1],100 µg/mL
same,MIC,E. coli 377,0.2 µg/mL
same,MIC,Escherichia coli H,0.025 µg/mL
same,MIC,P. vulgaris No. 3,0.2 µg/mL
same,MIC,Klebsiella sp. 363,0.05 µg/mL
same,MIC,[2],0.39 µg/mL
same,MIC,P. vulgaris CN-329,0.1 µg/mL
same,MIC,P. morganii No. 9,0.1 µg/mL
same,MIC,Enterobacter cloacae 233,0.2 µg/mL
same,MIC,Ps. aeruginosa 24,50 µg/mL
same,MIC,Klebsiella pneumoniae,0.1 µg/mL
same,MIC,Proteus mirabilis PR-4,0.2 µg/mL
same,MIC,E. coli 73,0.39 µg/mL
